Earlier results as cited in patent publication US20240325430A1, “MULTIPLE FOLATE FORMULATION AND USE THEREOF” (JAYMAC PHARMACEUTICAL LLC, priority 2012, published 2024).

Tested on: hydrocephalic Texas rats
Conditions: injected into hydrocephalic Texas rats during fetal development; J Neuropathol Exp Neurol 2009

Nc1nc2ncc(CNc3ccc(C(=O)N[C@@H](CCC(=O)O)C(=O)O)cc3)nc2c(=O)[nH]1 [folic acid]
incidence of hydrocephalus: significant increase
